This is an account of results in ChEMBL document CHEMBL3046860, “Photosynthetic Electron Transport Inhibitory and Herbicidal Activities of 2-(Fluorinated methyl-4-benzylamino-6-methyl)-1, 3, 5-triazines” (J Pestic Sci, 2000).

Assay [1] concerns the target Photosystem II D1 protein (psbA) (Spinacia oleracea). Put plainly: Inhibition of photosynthetic electron transport activity in Spinacia oleracea thylakoids assessed as inhibition of oxygen release.
The test system of assay [2] is Digitaria ciliaris. Put plainly: Post-emergence herbicidal activity against Digitaria ciliaris at 400 g a.i./10a measured after 3 weeks by foliar application test. It is filed as functional.
The subject of assay [3] is Digitaria ciliaris. Put plainly: Pre-emergence herbicidal activity against Digitaria ciliaris at 400 g a.i./10a measured after 3 weeks by soil application test. It is filed as functional.
Assay [4] concerns Pontederia vaginalis. In words: Pre-emergence herbicidal activity against Monochoria vaginalis at 400 g a.i./10a measured after 3 weeks by paddy application test. It is filed as functional.
The subject of assay [5] is Chenopodium album. In words: Post-emergence herbicidal activity against Chenopodium album at 400 g a.i./10a measured after 3 weeks by foliar application test. It is filed as functional.
The subject of assay [6] is Echinochloa crus-galli. Put plainly: Pre-emergence herbicidal activity against Echinochloa crus-galli var. crus-galli at 400 g a.i./10a measured after 3 weeks by soil application test. It is filed as functional.
Assay [7] concerns Echinochloa oryzicola. Put plainly: Pre-emergence herbicidal activity against Echinochloa oryzicola at 400 g a.i./10a measured after 3 weeks by paddy application test. It is filed as functional.
The subject of assay [8] is Schoenoplectiella juncoides. Put plainly: Pre-emergence herbicidal activity against Schoenoplectiella juncoides var. Hotarui Ohwi at 400 g a.i./10a measured after 3 weeks by paddy application test. It is filed as functional.
For assay [9], the system named is Persicaria longiseta. Put plainly: Post-emergence herbicidal activity against Persicaria longiseta at 400 g a.i./10a measured after 3 weeks by foliar application test. It is filed as functional.
The subject of assay [10] is Chenopodium album. Put plainly: Pre-emergence herbicidal activity against Chenopodium album at 400 g a.i./10a measured after 3 weeks by soil application test. It is filed as functional.
The subject of assay [11] is Amaranthus blitum subsp. oleraceus. Put plainly: Pre-emergence herbicidal activity against Amaranthus blitum subsp. Oleraceus at 400 g a.i./10a measured after 3 weeks by soil application test. It is filed as functional.
For assay [12], the system named is Rotala indica. In words: Pre-emergence herbicidal activity against Rotala indica at 400 g a.i./10a measured after 3 weeks by paddy application test. It is filed as functional.
The test system of assay [13] is Persicaria longiseta. In words: Pre-emergence herbicidal activity against Persicaria longiseta at 400 g a.i./10a measured after 3 weeks by soil application test. It is filed as functional.
Assay [14] deals with Echinochloa crus-galli. In words: Post-emergence herbicidal activity against Echinochloa crus-galli var. crus-galli at 400 g a.i./10a measured after 3 weeks by foliar application test. It is filed as functional.
The test system of assay [15] is Rotala indica. Put plainly: Pre-emergence herbicidal activity against Rotala indica at 800 g a.i./10a measured after 3 weeks by paddy application test. It is filed as functional.
The subject of assay [16] is Digitaria ciliaris. Put plainly: Pre-emergence herbicidal activity against Digitaria ciliaris at 800 g a.i./10a measured after 3 weeks by soil application test. It is filed as functional.
Assay [17] concerns Schoenoplectiella juncoides. In words: Pre-emergence herbicidal activity against Schoenoplectiella juncoides var. Hotarui Ohwi at 800 g a.i./10a measured after 3 weeks by paddy application test. It is filed as functional.
Assay [18] concerns Chenopodium album. Put plainly: Pre-emergence herbicidal activity against Chenopodium album at 800 g a.i./10a measured after 3 weeks by soil application test. It is filed as functional.
For assay [19], the system named is Pontederia vaginalis. In words: Pre-emergence herbicidal activity against Monochoria vaginalis at 800 g a.i./10a measured after 3 weeks by paddy application test. It is filed as functional.
Assay [20] has as its system Echinochloa crus-galli. Put plainly: Pre-emergence herbicidal activity against Echinochloa crus-galli var. crus-galli at 800 g a.i./10a measured after 3 weeks by soil application test. It is filed as functional.
The subject of assay [21] is Echinochloa oryzicola. Put plainly: Pre-emergence herbicidal activity against Echinochloa oryzicola at 800 g a.i./10a measured after 3 weeks by paddy application test. It is filed as functional.
Assay [22] has as its system Echinochloa crus-galli. In words: Pre-emergence herbicidal activity against Echinochloa crus-galli var. crus-galli at 100 g a.i./10a measured after 3 weeks by soil application test. It is filed as functional.
Assay [23] has as its system Chenopodium album. Put plainly: Pre-emergence herbicidal activity against Chenopodium album at 100 g a.i./10a measured after 3 weeks by soil application test. It is filed as functional.
Assay [24] deals with Digitaria ciliaris. Put plainly: Pre-emergence herbicidal activity against Digitaria ciliaris at 100 g a.i./10a measured after 3 weeks by soil application test. It is filed as functional.
Assay [25] has as its system Amaranthus blitum subsp. oleraceus. Put plainly: Pre-emergence herbicidal activity against Amaranthus blitum subsp. Oleraceus at 100 g a.i./10a measured after 3 weeks by soil application test. It is filed as functional.

Regarding `Cc1nc(NCc2ccc([N+](=O)[O-])cc2)nc(C(F)(F)F)n1`, the pI50 in assay [1] came to 7.16.
`Cc1nc(CF)nc(NCc2ccc(Cl)cc2)n1`: the Activity is 4% in assay [2]; 3% in assay [3]; 5% in assay [4]; 6% in assay [5]; 3% in assay [6]; 5% in assay [7]. Besides, the Activity in [8] came to 4%; in assay [9], 6%; in assay [10] it was 5%; in assay [11], 4%; in assay [12], 6%; in [13] it was 4%. For the same compound, in assay [14], the Activity is listed as 4%.
Turning to `Cc1nc(NCc2ccc(Cl)cc2)nc(C(F)F)n1`, the Activity is on record as 6% in assay [2]; 5% in assay [3]; 6% in assay [4]; 6% in assay [5]; 4% in [6]; 5% in assay [7]. Also, the Activity in [8] came out at 6%; in [9], 6%; in assay [10], 6%; in assay [11] it was 5%; in assay [12], 6%; in assay [13], 6%. The same compound had an Activity in assay [14] of 6%.
Take `Cc1ccc(CNc2nc(C)nc(C(F)F)n2)cc1`: the Activity in [2] came to 4%; in [3] it was 4%; in [4] it was 5%; in assay [5], 6%; in [6], 3%; in assay [7], 4%. For the same compound, the Activity in assay [8] was found to be 5%; in assay [9], 6%; in [10] it was 5%; in [11], 4%; in [12] it was 5%; in assay [13], 5%. Also, the Activity in [14] amounted to 4%.
In the case of `Cc1nc(NCc2ccc(Cl)cc2)nc(C(F)(F)F)n1`, the Activity amounted to 6% in assay [2]; 5% in assay [3]; 6% in assay [4]; 6% in assay [5]; 3% in assay [6]; 6% in assay [7]. The Activity came to 6% in assay [8]; 6% in [9]; 5% in [10]; 6% in assay [11]; 6% in assay [12]; 4% in assay [14].
As for `Cc1nc(NCc2ccc([N+](=O)[O-])cc2)nc(C(F)F)n1`, the Activity in assay [2] came out at 5%; in assay [3] it was 4%; in assay [4], 5%; in assay [5], 6%; in assay [6], 4%; in assay [7], 5%. The Activity in assay [8] is 5%; in assay [9], 6%; in assay [10] it was 5%; in assay [11] it was 5%; in [12], 6%; in [13], 5%. In assay [14], this compound displayed an Activity of 4%.
For `Cc1nc(NCc2ccccc2)nc(C(F)F)n1`, the Activity in assay [2] was 4%; in assay [3], 4%; in assay [4], 6%; in assay [5] it was 6%; in assay [6] it was 5%; in assay [7], 4%. In addition, the Activity was 5% in assay [8]; 6% in assay [9]; 6% in [10]; 4% in [11]; 5% in assay [12]; 6% in assay [13]. In addition, the Activity in assay [14] is reported as 3%.
In the case of `Cc1nc(NCc2cccc(Cl)c2)nc(C(F)F)n1`, the Activity in [2] is given as 4%; in assay [3], 4%; in assay [4], 5%; in assay [5] it was 6%; in assay [6], 4%; in assay [7], 4%. The Activity came out at 5% in [8]; 6% in assay [9]; 5% in assay [10]; 4% in [11]; 5% in assay [12]; 5% in assay [13]. For the same compound, in assay [14], the Activity is 3%.
For `Cc1nc(NCc2ccccc2)nc(C(F)(F)F)n1`, the Activity in [2] was 4%; in assay [3], 3%; in assay [4] it was 6%; in assay [5], 6%; in assay [6] it was 2%; in [7], 3%. Also, the Activity in assay [8] stood at 0%; in assay [10] it was 6%; in [11], 4%; in assay [12], 4%; in [14], 3%.
As to `Cc1nc(NCc2ccc(Br)cc2)nc(C(F)(F)F)n1`, the Activity worked out at 6% in assay [2]; 5% in assay [3]; 5% in assay [4]; 6% in assay [5]; 5% in [6]; 4% in assay [7]. Moreover, the Activity in assay [8] amounted to 6%; in assay [9], 6%; in assay [10] it was 5%; in [11] it was 5%; in assay [12] it was 5%; in assay [14] it was 4%.
`Cc1nc(NCc2cccc(Cl)c2)nc(C(F)(F)F)n1`: in assay [1], the pI50 came to 7.21.
For the compound `Cc1nc(CF)nc(NCc2ccccc2)n1`, the Activity in assay [2] is given as 1%; in [3], 1%; in assay [4] it was 0%; in assay [5] it was 6%; in assay [6], 1%; in [7], 0%. The Activity in assay [8] amounted to 0%; in assay [9], 4%; in assay [10], 5%; in assay [11], 4%; in assay [12], 0%; in assay [13] it was 2%. Moreover, the Activity in assay [14] worked out at 0%.
Turning to `Cc1nc(CF)nc(NCc2ccc(Br)cc2)n1`, the Activity in assay [2] came out at 5%; in [3], 4%; in assay [4], 5%; in [5], 6%; in assay [6] it was 4%; in assay [7], 5%. The Activity was 5% in assay [8]; 6% in [9]; 5% in assay [10]; 5% in assay [11]; 6% in [12]; 5% in assay [13]. The compound further returned an Activity in [14] of 4%.
With `Cc1nc(C)nc(NCc2ccccc2)n1`, the Activity in assay [15] is given as 1%; in assay [2] it was 0%; in assay [16] it was 0%; in assay [17] it was 0%; in assay [18], 0%; in assay [5] it was 0%. Besides, the Activity in assay [19] is on record as 6%; in assay [20], 0%; in [9] it was 0%; in [14], 0%; in assay [21], 3%.
Turning to `Cc1nc(NCc2ccc(Br)cc2)nc(C(F)F)n1`, the Activity in assay [2] is listed as 6%; in assay [3], 5%; in assay [4], 6%; in assay [5] it was 6%; in [6], 4%; in assay [7], 6%. Moreover, the Activity in assay [8] stood at 6%; in assay [9], 6%; in assay [10], 6%; in assay [11] it was 5%; in assay [12] it was 6%; in [13] it was 6%. The Activity in assay [14] is listed as 6%.
With `Cc1ccc(CNc2nc(C)nc(C(F)(F)F)n2)cc1`, the pI50 in [1] was determined as 6.74.
For the compound `CCNc1nc(Cl)nc(NCC)n1` [SIMAZINE], the Activity in assay [22] is listed as 2%; in [23] it was 2%; in assay [24], 3%; in [25] it was 5%.
